Reference: patent publication US20060223792A1, “Phenyl and pyridyl LTA4H modulators” (priority 2005, published 2006)
Structures can show the parent of a compound that is named as a salt.

Each compound was assayed against T1, recombinant human LTA4 hydrolase (rhLTA4H) (Homo sapiens, UniProt P09960) (assay: Recombinant human LTA4 hydrolase assay for LTA4 hydrolase inhibitor activity). Conditions: not given.
T1 construct: made in house; host or cells: Spodoptera frugiperda (Sf-9) cells, baculovirus (pFastBac1)
T1 sequence (P09960 1-611): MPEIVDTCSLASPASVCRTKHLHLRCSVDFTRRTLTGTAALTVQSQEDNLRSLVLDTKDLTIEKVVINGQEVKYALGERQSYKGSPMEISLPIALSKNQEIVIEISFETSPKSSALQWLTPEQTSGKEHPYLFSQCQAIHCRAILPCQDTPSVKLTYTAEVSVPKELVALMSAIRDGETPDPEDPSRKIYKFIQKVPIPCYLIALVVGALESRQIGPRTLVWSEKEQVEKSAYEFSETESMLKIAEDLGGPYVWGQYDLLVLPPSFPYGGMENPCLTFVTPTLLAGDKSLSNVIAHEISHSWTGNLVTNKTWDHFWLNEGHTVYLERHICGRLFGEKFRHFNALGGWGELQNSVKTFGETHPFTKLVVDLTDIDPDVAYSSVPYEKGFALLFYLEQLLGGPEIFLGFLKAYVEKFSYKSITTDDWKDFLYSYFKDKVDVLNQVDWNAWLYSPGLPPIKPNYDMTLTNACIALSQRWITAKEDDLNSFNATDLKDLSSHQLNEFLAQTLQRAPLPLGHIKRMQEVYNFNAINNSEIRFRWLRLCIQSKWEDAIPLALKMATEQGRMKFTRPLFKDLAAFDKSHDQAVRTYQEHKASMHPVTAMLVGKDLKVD
Format: biochemical
Protocol: Recombinant Human LTA4 Hydrolase Assay for LTA4 Hydrolase Inhibitor Activity
Compounds of the present invention were tested for LTA4 hydrolase inhibitor activity against recombinant human LTA4 hydrolase (rhLTA4H). Vectors were prepared and used to express rhLTA4H essentially as follows: LTA4 hydrolase encoding DNA was amplified by polymerase chain reaction (PCR) using a human placental cDNA library as a template. Oligonucleotide primers for the PCR reaction were based on the 5′-end, and the complement of the 3′-end, of the published nucleotide sequence for the coding region of the human LTA4 hydrolase gene (C. D. Funk et al., Proc. Natl. Acad. Sci. USA 1987, 84:6677-6681). The amplified […] DNA fragment encoding LTA4 hydrolase was isolated and cloned into the pFastBac1 vector (Invitrogen). Recombinant baculovirus was generated as described by the manufacturer, and used to infect Spodoptera frugiperda (Sf-9) cells. Recombinant LTA4 hydrolase enzyme was purified from the infected Sf-9 cells essentially as described by J. K. Gierse et al. (Protein Expr. Purif. 1993, 4(5):358-366). The purified enzyme solution was adjusted to contain 0.29 mg/mL LTA4 hydrolase, 50 mM Tris (pH 8.0),150 mM NaCl, 5 mM dithiothreitol, 50% glycerol, and EDTA-free Complete protease inhibitor cocktail (Roche). The specific activity of the enzyme was about 3.8 μmol/min/mg.
LTA4 substrate was prepared from the methyl ester of LTA4 (Cayman Chemical) by treatment with 67 equiv. of NaOH under nitrogen at rt for 40 min. The LTA4 substrate in its free acid form was kept frozen at −80° C. until needed. Each compound was diluted to different concentrations in assay buffer (0.1 M potassium phosphate (pH 7.4), 5 mg/mL fatty acid free BSA) containing 10% DMSO. A 25-μL aliquot of each compound dilution was incubated for 10 min at rt with an equal volume of assay buffer containing 36 ng of recombinant human LTA4H. The solution was then adjusted to 200 μL with assay buffer. LTA4 (free acid) was thawed and diluted in assay buffer to a concentration of 357 ng/mL, and 25 μL (9 ng) of LTA4 substrate was added to the reaction mixture (total volume=225 μL) at time zero. Each reaction was carried out at rt for 10 min. The reaction was stopped by diluting 10 μL of the reaction mixture with 200 μL of assay buffer. LTB4 was quantifiedin the diluted sample by a commercially available enzyme-linked immunoassay (Cayman Chemical Co.), as recommended by the manufacturer. Positive controls, under essentially identical conditions but without addition of an inhibitor compound, and negative controls, containing all assay components except enzyme, were routinely run in each experiment. IC50 values were determined by fitting the activity data at different compound concentrations to a 4-parameter equation using the Grafit program (Erithacus software).
The IC50 values presented in the table below should be expected to fall within the typical three-fold variability of assays of this type. The values presented here are, in general, an average of one to three determinations.

| Compound | IC50 [nM] |
| --- | --- |
| CCCCN(CCCC)CCCc1ccc(OC(=O)Nc2ccccc2)cc1 [Example 12, Phenyl-carbamic acid 4-(3-dibutylamino-propyl)-phenyl ester hydrochloride] | 3 |

Same assay, conditions: recombinant human LTA4H, LTB4 quantified by enzyme-linked immunoassay; average of one to three determinations; read-out: IC50

| Compound | IC50 [nM] |
| --- | --- |
| O=C(Nc1cccc(O)c1)Oc1ccc(OCCN2CCC(O)(c3ccccc3)CC2)cc1 [Example 11, (3-hydroxy-phenyl)-carbamic acid 4-[2-(4-hydroxy-4-phenyl-piperidin-1-yl)-ethoxy]-phenyl ester] | 0.3 |
| O=C(Cc1ccc(OCCN2CCC(O)(c3ccccc3)CC2)cc1)Nc1ccccc1O [Example 13, N-(2—hydroxy-phenyl)-2-{4-[2-(4-hydroxy-4-phenyl-piperidin-1-yl)-ethoxy]-phenyl}-acetamide] | 10 |
| O=C(O)C1CCN(Cc2ccc(OCCc3ccccc3)nc2)CC1 [Example 94, 1-(6-Phenethyloxy-pyridin-3-ylmethyl)-piperidine-4-carboxylic acid] | 254 |
| c1ccc(CCCCOc2ccc(CN3CCCCC3)cc2)cc1 [Example 98, 1-[4-(4-Phenyl-butoxy)-benzyl]-piperidine] | 167 |
| O=C1NCCC12CCN(Cc1ccc(OCCc3ccccc3)cc1)CC2 [Example 100, 8-(4-Phenethyloxy-benzyl)-2,8-diaza-spiro[4.5]decan-1-one] | 121 |
| OC1CCN(Cc2ccc(OCCc3ccccc3)cc2)CC1 [Example 103, 1-(4-Phenethyloxy-benzyl)-piperidin-4-ol] | 70 |
| CCOC(=O)C1CCN(Cc2ccc(OCCCc3ccccc3)cc2)CC1 [Example 106, 1-[4-(3-Phenyl-propoxy)-benzyl]-piperidine-4-carboxylic acid ethyl ester] | 154 |
| NC(=O)C1CCCN(Cc2ccc(OCCCc3ccccc3)cc2)C1 (stereo not shown) [Example 111, 1-[4-(3-Phenyl-propoxy)-benzyl]-piperidine-3-carboxylic acid amide] | 95 |
| COC(=O)NC1CCN(Cc2ccc(OCCc3ccccc3)cc2)CC1 [Example 115, [1-(4-Phenethyloxy-benzyl)-piperidin-4-yl]-carbamic acid methyl ester] | 78 |
| CCOC(=O)C1CCN(CCOc2ccc(OCCCc3ccccc3)cc2)CC1 [Example 116, 1-{2-[4-(3-Phenyl-propoxy)-phenoxy]-ethyl}-piperidine-4-carboxylic acid ethyl ester] | 195 |
| O=C(Oc1ccc(OCCN2CCCCC2)cc1)C(Cl)c1ccccc1 (stereo not shown) [Example 123, Chloro-phenyl-acetic acid 4-(2-piperidin-1-yl-ethoxy)-phenyl ester] | 150 |
| O=C(Oc1ccc(OCCN2CCCCC2)cc1)C1Cc2ccccc2C1 [Example 124, Indan-2-carboxylic acid 4-(2-piperidin-1-yl-ethoxy)-phenyl ester] | 184 |
| OC1c2ccccc2CC1Oc1ccc(OCCN2CCCCC2)cc1 (stereo not shown) [Example 125, 2-[4-(2-Piperidin-1-yl-ethoxy)-phenoxy]-indan-1-ol] | 192 |
| O=C1c2ccccc2CC1Oc1ccc(OCCN2CCCCC2)cc1 (stereo not shown) [Example 126, 2-[4-(2-Piperidin-1-yl-ethoxy)-phenoxy]-indan-1-one] | 64 |
| Fc1cccc(CCOc2ccc(OCCN3CCCCC3)cc2)c1 [Example 165, 1-(2-{4-[2-(3-Fluoro-phenyl)-ethoxy]-phenoxy}-ethyl)-piperidine] | 900 |
| Fc1ccc(CCOc2ccc(OCCN3CCCCC3)cc2)cc1 [Example 166, 1-(2-{4-[2-(4-Fluoro-phenyl)-ethoxy]-phenoxy}-ethyl)-piperidine] | 248 |

Further lines, results first:

| IC50 [nM] | Compound |
| --- | --- |
| 58 | O=C(COc1ccc(OCCN2CCCCC2)cc1)c1ccccc1 [Example 24, 1-Phenyl-2-[4-(2-piperidin-1-yl-ethoxy)-phenoxy]-ethanone] |
| 36 | c1ccc(CCOc2ccc(CN3CCCCC3)cc2)cc1 [Example 95, 1-(4-Phenethyloxy-benzyl)-piperidine] |
| 31 | c1ccc(CCCOc2ccc(CN3CCCCC3)cc2)cc1 [Example 97, 1-[4-(3-Phenyl-propoxy)-benzyl]-piperidine] |
| 28 | NC(=O)C1CCN(Cc2ccc(OCCc3ccccc3)cc2)CC1 [Example 101, 1-(4-Phenethyloxy-benzyl)-piperidine-4-carboxylic acid amide] |
| 36 | NC(=O)C1CCCN(Cc2ccc(OCCc3ccccc3)cc2)C1 (stereo not shown) [Example 102, 1-(4-Phenethyloxy-benzyl)-piperidine-3-carboxylic acid amide] |
| 25 | NC1CCN(Cc2ccc(OCCc3ccccc3)cc2)CC1 [Example 105, 1-(4-Phenethyloxy-benzyl)-piperidin-4-ylamine] |
| 16 | OC1CCN(Cc2ccc(OCCCc3ccccc3)cc2)CC1 [Example 108, 1-[4-(3-Phenyl-propoxy)-benzyl]-piperidin-4-ol] |
| 23 | OC1CCCN(Cc2ccc(OCCCc3ccccc3)cc2)C1 (stereo not shown) [Example 109, 1-[4-(3-Phenyl-propoxy)-benzyl]-piperidin-3-ol] |
| 9 | NC(=O)C1CCN(Cc2ccc(OCCCc3ccccc3)cc2)CC1 [Example 110, 1-[4-(3-Phenyl-propoxy)-benzyl]-piperidine-4-carboxylic acid amide] |
| 17 | NC(=O)NC1CCN(Cc2ccc(OCCc3ccccc3)cc2)CC1 [Example 114, [1-(4-Phenethyloxy-benzyl)-piperidin-4-yl]-urea] |
| 40 | NC1CCN(Cc2ccc(OCCCc3ccccc3)cc2)CC1 [Example 118, 1-[4-(3-Phenyl-propoxy)-benzyl]-piperidin-4-ylamine] |
| 8 | COC(=O)NC1CCN(Cc2ccc(OCCCc3ccccc3)cc2)CC1 [Example 121, {1-[4-(3-Phenyl-propoxy)-benzyl]-piperidin-4-yl}-carbamic acid methyl ester] |
| 35 | NC(=O)NC1CCN(Cc2ccc(OCCCc3ccccc3)cc2)CC1 [Example 122, {1-[4-(3-Phenyl-propoxy)-benzyl]-piperidin-4-yl}-urea] |

What follows are compounds tested on LTB4 production by calcium ionophore-stimulated murine blood (assay: LTB4 production by calcium ionophore-stimulated murine blood for LTA4H inhibitor activity). Conditions: diluted CD-1 mouse whole blood, calcium ionophore A23187, LTB4 by enzyme-linked immunoassay.
Format: cell-based, CD-1 mice
Protocol: LTB4 Production by Calcium Ionophore-Stimulated Murine Blood for LTA4H Inhibitor Activity
CD-1 mice were sacrificed, and blood was collected in heparin-containing syringes by cardiac puncture. The blood was diluted 1:15 with RPMI-1640 medium, and 200-μL aliquots of the diluted blood were added to wells of a 96-well microtiter plate. LTA4H inhibitor test compounds were prepared at different concentrations in RPMI-1640 medium containing […], and 20 μL of each test solution was added to a well containing diluted whole blood (final DMSO concentration of 0.1%). After the microtiter plate contents were incubated for 15 min at 37° C. in a humidified incubator, calcium ionophore A23187 (Sigma Chemical Co., St. Louis, Mo.) was added to each sample well (final concentration=20 ng/mL). The incubation was continued under the same conditions for an additional 10 min to allow LTB4 formation. The reaction was terminated by centrifugation (833×g, 10 min at 4° C.), and supernatants were analyzed for LTB4 by a commercially available enzyme-linked immunoassay (Cayman Chemical Co.) according to the manufacturer's instructions. Positive controls, under essentially identical conditions but without addition of an inhibitor compound, and negative unstimulated controls, containing all assay components except calcium ionophore, were routinely run in each experiment. IC50 values were determined by fitting the activity data at different compound concentrations to a 4-parameter equation using the Grafit program (Erithacus software).

| Compound | IC50 [nM] |
| --- | --- |
| O=C(Nc1cccc(O)c1)Oc1ccc(OCCN2CCC(O)(c3ccccc3)CC2)cc1 [Example 11, (3-hydroxy-phenyl)-carbamic acid 4-[2-(4-hydroxy-4-phenyl-piperidin-1-yl)-ethoxy]-phenyl ester] | 12 |
| CCCCN(CCCC)CCCc1ccc(OC(=O)Nc2ccccc2)cc1 [Example 12, Phenyl-carbamic acid 4-(3-dibutylamino-propyl)-phenyl ester hydrochloride] | 88 |
| O=C(Cc1ccc(OCCN2CCC(O)(c3ccccc3)CC2)cc1)Nc1ccccc1O [Example 13, N-(2—hydroxy-phenyl)-2-{4-[2-(4-hydroxy-4-phenyl-piperidin-1-yl)-ethoxy]-phenyl}-acetamide] | 47 |
| O=C(COc1ccc(OCCN2CCCCC2)cc1)c1ccccc1 [Example 24, 1-Phenyl-2-[4-(2-piperidin-1-yl-ethoxy)-phenoxy]-ethanone] | 202 |
